According to ChEMBL document CHEMBL1143282, “Synthesis and evaluation of photoreactive probes to elucidate iodide efflux in thyrocytes” (Bioorg Med Chem Lett, 2009):
The source made the active and inactive calls. No cut-off for these calls is given here.

Columns and labels:
FRTL-5 [1] = assay: Iodide sequestering activity in rat FRTL5 cells assessed as enhancement of intracellular iodide entrapment at 0.1 to 200 uM after 120 mins in dark by scintillation counting; assay type: functional, cell-based
FRTL-5 [2] = assay: Iodide sequestering activity in rat FRTL5 cells assessed as enhancement of intracellular iodide entrapment at 50 uM after 120 mins in dark by scintillation counting relative to sodium perchlorate; assay type: functional
FRTL-5 [3] = assay: Iodide sequestering activity in rat FRTL5 cells assessed as enhancement of intracellular iodide entrapment at 200 uM after 120 mins in dark by scintillation counting relative to sodium perchlorate; assay type: functional
[4] = Chemical stability assessed as photodecomposition-associated half life in MeCN using UV lamp; assay type: physicochemical; details: MeCN solution irradiated with UV lamp
FRTL-5 [5] = assay: Iodide sequestering activity in rat FRTL5 cells assessed as enhancement of intracellular iodide entrapment after 120 mins in dark by scintillation counting; assay type: functional, cell-based; details: for EC50: FRTL-5, 2 h
[6] = Chemical stability in MeCN/H2O at 4mCi/mL; assay type: physicochemical
FRTL-5 [7] = assay: Iodide sequestering activity in rat FRTL5 cells assessed as enhancement of intracellular iodide entrapment at 20 uM after 120 mins in dark by scintillation counting relative to sodium perchlorate; assay type: functional

## N#[N+]c1ccc(-c2ccc(C3=CSC4=NCCN34)cc2)cc1
FRTL-5 [1]
  Activity: inactive

## O=C(c1ccccc1)c1ccc(C2=CSC3=NCCN23)cc1
FRTL-5 [2]
  fold change (FC): 1.8
FRTL-5 [3]
  fold change (FC): 2.5
[4]
  half-life: 12 min
FRTL-5 [1]
  Activity: Active
FRTL-5 [5]
  Activity: Dose-dependent effect
  EC50: 50 µM

## [3H]C1=C(c2ccc(C(=O)c3ccccc3)cc2)N2CCN=C2S1
[6]
  Stability: 6 months

## [N-]=[N+]=Nc1ccc(-c2ccc(C3=CSC4=NCCN34)cc2)cc1
FRTL-5 [1]
  Activity: inactive

## C1=C(c2ccc(-c3ccccc3)cc2)N2CCN=C2S1
FRTL-5 [7]
  fold change (FC): 2.5
FRTL-5 [5]
  EC50: 20 µM

## FC(F)(F)C1(c2ccc(C3=CSC4=NCCN34)cc2)N=N1
FRTL-5 [1]
  Activity: inactive
